Source: article PMC12113356, “Novel Anti-MRSA Peptide from Mangrove-Derived Virgibacillus chiguensis FN33 Supported by Genomics and Molecular Dynamics” (Marine Drugs, 2025)
Where two headings read alike, the source gives them in different places. Peptide text beside a SMILES is read from it.

Columns and labels:
MRSA strain 2468 [1] = assay: Scanning electron microscopy of treated cells; assay type: cell-based, Staphylococcus aureus; conditions: 1× MIC, 16 h / 18 h (figure legend), 30,000× magnification
Source text: (§1) SEM was used to examine morphological alterations in the bacterial cells. […] This appearance reflected their natural cellular structure.
(§2) Figure 5 SEM images captured at 30,000× magnification. […] The non-treatment condition served as a negative control.

S. aureus TISTR 517 [2] = assay: Scanning electron microscopy of treated cells; assay type: cell-based, Staphylococcus aureus; conditions: 1× MIC, 16 h / 18 h (figure legend), 30,000× magnification
Source text: as §1, §2

α-chymotrypsin = target: T1, α-chymotrypsin (Bos taurus, UniProt P00766); assay: Stability to protease digestion (activity retention); assay type: in vitro ADME; conditions: 32 µg/mL, α-chymotrypsin 1 mg/mL, agar well diffusion read-out vs MRSA strain 2468, % of untreated sample, mean ± SD, n = 3
T1 construct: purchased Sigma-Aldrich
Method: (§3) The AMP solution was prepared in sterile purified water and adjusted to a final concentration of 32 µg/mL. To determine thermal stability, the AMP was exposed to temperatures of 30, 40, 60, 80, and 100 °C, as well as to autoclaving at 121 °C and 15 psi for 15 and 30 min. The susceptibility of the AMP to enzymatic degradation was examined by treating it with proteinase K, trypsin, and α-chymotrypsin (each at 1 mg/mL, Sigma-Aldrich, Warren, MI, USA), representing different proteolytic mechanisms. The AMP’s compatibility with surfactants was assessed by incubating it with 1% SDS, 1% CTAB, and 1% Triton X-100 (AppliChem GmbH, Darmstadt, Germany). Additionally, the effect of pH variations on AMP integrity was tested by adjusting the solution to pH 1, 4, 8, 10, and 14. The pH was neutralized to the original pH after incubation before conducting antibacterial activity tests. […] Stability data were expressed as residual activity percentages relative to the untreated sample (mean ± SD), and statistical significance was evaluated using two-way ANOVA and Tukey’s post hoc test, with a p-value < 0.05 considered significant.

proteinase K = target: T2, proteinase K (Parengyodontium album, UniProt P06873); assay: as above; assay type: in vitro ADME; conditions: 32 µg/mL, proteinase K 1 mg/mL, agar well diffusion read-out vs MRSA strain 2468, % of untreated sample, mean ± SD, n = 3
T2 construct: purchased Sigma-Aldrich
T2 sequence (P06873 106-384): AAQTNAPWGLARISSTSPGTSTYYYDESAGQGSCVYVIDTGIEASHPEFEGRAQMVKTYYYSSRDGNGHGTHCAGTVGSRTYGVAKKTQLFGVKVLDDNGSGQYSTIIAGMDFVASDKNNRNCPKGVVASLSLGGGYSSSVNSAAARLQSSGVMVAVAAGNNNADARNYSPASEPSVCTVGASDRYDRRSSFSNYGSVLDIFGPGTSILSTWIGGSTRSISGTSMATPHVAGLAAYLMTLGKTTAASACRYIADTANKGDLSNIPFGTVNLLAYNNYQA
Method: as §3

MRSA strain 2468 [3] = assay: Sytox Green uptake assay (membrane permeabilization); assay type: cell-based, Staphylococcus aureus; conditions: 10 µM Sytox Green, ex 504/em 523 nm, over 24 h
Method: (§4) The Sytox Green uptake assay was conducted to assess membrane permeabilization associated with loss of membrane integrity. The fluorescence would be detected from a Sytox Green–DNA complex. […] Triton X-100 (0.125–2%) and an untreated sample were used as positive and negative controls, respectively. Fluorescence intensities were recorded 5 min before sample addition across all groups to ensure cell integrity prior to the experiment. […] For MRSA strain 2468, fluorescence intensity was higher than the positive control at the time of sample addition and remained concentration-dependent.
(§5) The membrane permeabilization of bacterial cells was determined by the increase in fluorescence intensity caused by the Sytox Green–DNA complex. The fluorescence intensity was observed over time for 24 h. The inset graphs show the expanded view of the fluorescence baseline before sample addition and the fluorescence intensity during the initial 60 min after sample addition. The increase in fluorescence intensity over the entire treatment period was expressed as fold changes, comparing different sample concentrations to the untreated condition of S. aureus TISTR 517 (c) and MRSA strain 2468 (d).
(§6) The Sytox Green uptake assay was performed to evaluate the disruption of cell membrane integrity induced by the AMP [67]. An overnight culture (16 h) of MRSA strain 2468 was harvested and washed three times with sterile PBS (pH 7.4) supplemented with 0.2% CAMHB as a diluent. The cell suspension was then diluted with the same diluent until the OD at 625 nm was 0.1 (1 × 10^8 CFU/mL). An aliquot (100 µL) of the diluted cells was added to each well, followed by incubation with 10 µM Sytox Green (Thermo Fisher Scientific Inc., Waltham, MA, USA) in the dark for 15 min. […] Triton X-100 (AppliChem GmbH, Darmstadt, Germany) was used as a positive control and prepared at final concentrations ranging from 0.125% to 2%. These concentrations were used to compare the level of cell membrane permeability induced by the AMP. Membrane permeability was assessed by measuring fluorescence intensity using a microplate reader (Thermo Scientific Inc., Waltham, MA, USA) at excitation and emission wavelengths of 504 nm and 523 nm, respectively, over a 24 h period following AMP addition. Significant differences in fluorescence intensity (p-value < 0.05) were analyzed using two-way ANOVA and Tukey’s post hoc test for multiple comparisons between treated and untreated conditions.

S. aureus TISTR 517 [4] = assay: as above; assay type: cell-based, Staphylococcus aureus; conditions: 10 µM Sytox Green, ex 504/em 523 nm, over 24 h
Method: as §4, §5, §6

trypsin = assay type: in vitro ADME; conditions: 32 µg/mL, trypsin 1 mg/mL, agar well diffusion read-out vs MRSA strain 2468, % of untreated sample, mean ± SD, n = 3
Method: as §3

MRSA strain 2468 [5] = assay: Compatibility with surfactants (activity retention by agar well diffusion); assay type: physicochemical, Staphylococcus aureus; conditions: 32 µg/mL, agar well diffusion read-out, % of untreated sample, mean ± SD, n = 3
Method: as §3

MRSA strain 2468 [6] = assay: Thermal stability (activity retention by agar well diffusion); assay type: physicochemical, Staphylococcus aureus; conditions: for Antibacterial Activity Retention of FN33 AMP (%) Against MRSA Strain 2468: 32 µg/mL in water, agar well diffusion read-out, % of untreated sample, mean ± SD, n = 3
Method: as §3

CC(C)C[C@H](NC(=O)[C@H](CC(=O)O)NC(=O)[C@H](CS)NC(=O)[C@H](Cc1c[nH]cn1)NC(=O)[C@H](CS)NC(=O)[C@@H]1CCCN1C(=O)[C@@H](NC(=O)[C@H](CC(C)C)NC(=O)[C@H](CS)NC(=O)CNC(=O)[C@H](Cc1c[nH]c2ccccc12)NC(=O)[C@@H](NC(=O)[C@H](CC(=O)O)NC(=O)[C@@H](NC(=O)CNC(=O)[C@H](CS)NC(=O)CNC(=O)CNC(=O)[C@@H](N)CCC(=O)O)C(C)C)[C@@H](C)O)[C@@H](C)O)C(=O)N[C@@H](Cc1ccccc1)C(=O)N[C@@H](CS)C(=O)N[C@H](C(=O)N[C@H](C(=O)O)[C@@H](C)O)[C@@H](C)O [FN33 AMP] (H-EGGCGVDTWGCLTPCHCDLFCTT-OH)
morphological changes under SEM (MRSA strain 2468 [1]): greater number of completely lysed cells
morphological changes under SEM (S. aureus TISTR 517 [2]): dented and rough surface with fewer lysed cells
Antibacterial Activity Retention of FN33 AMP (%) Against MRSA Strain 2468 (α-chymotrypsin; 1 h): 0.00 ± 0.00 %
Antibacterial Activity Retention of FN33 AMP (%) Against MRSA Strain 2468 (α-chymotrypsin; 6 h): 0.00 ± 0.00 %
Antibacterial Activity Retention of FN33 AMP (%) Against MRSA Strain 2468 (α-chymotrypsin; 12 h): 0.00 ± 0.00 %
Antibacterial Activity Retention of FN33 AMP (%) Against MRSA Strain 2468 (proteinase K; 1 h): 0.00 ± 0.00 %
Antibacterial Activity Retention of FN33 AMP (%) Against MRSA Strain 2468 (proteinase K; 6 h): 0.00 ± 0.00 %
Antibacterial Activity Retention of FN33 AMP (%) Against MRSA Strain 2468 (proteinase K; 12 h): 0.00 ± 0.00 %
average fluorescence increase vs untreated group (MRSA strain 2468 [3]; 0.25× MIC): 5.87 ± 0.72 fold
average fluorescence increase vs untreated group (MRSA strain 2468 [3]; 0.5× MIC): 7.44 ± 0.77 fold
average fluorescence increase vs untreated group (MRSA strain 2468 [3]; 1× MIC): 7.91 ± 0.48 fold
average fluorescence increase vs untreated group (MRSA strain 2468 [3]; 2× MIC): 8.49 ± 0.25 fold
average fluorescence increase vs untreated group (MRSA strain 2468 [3]; 4× MIC): 9.13 ± 0.46 fold
average increase in fluorescence intensity vs untreated group (S. aureus TISTR 517 [4]; 0.25× MIC): 1.88 ± 0.83 fold
average increase in fluorescence intensity vs untreated group (S. aureus TISTR 517 [4]; 0.5× MIC): 1.89 ± 0.91 fold
average increase in fluorescence intensity vs untreated group (S. aureus TISTR 517 [4]; 1× MIC): 1.98 ± 0.92 fold
average increase in fluorescence intensity vs untreated group (S. aureus TISTR 517 [4]; 2× MIC): 3.54 ± 1.64 fold
average increase in fluorescence intensity vs untreated group (S. aureus TISTR 517 [4]; 4× MIC): 8.49 ± 4.31 fold
Antibacterial Activity Retention of FN33 AMP (%) Against MRSA Strain 2468 (trypsin; 1 h): 99.60 ± 0.6%
Antibacterial Activity Retention of FN33 AMP (%) Against MRSA Strain 2468 (trypsin; 6 h): 98.82 ± 0.67%
Antibacterial Activity Retention of FN33 AMP (%) Against MRSA Strain 2468 (trypsin; 12 h): 99.04 ± 1.02%
Antibacterial Activity Retention of FN33 AMP (%) Against MRSA Strain 2468 (MRSA strain 2468 [5]; with CTAB 1% w/v, 1 h): 93.19 ± 0.52 %
Antibacterial Activity Retention of FN33 AMP (%) Against MRSA Strain 2468 (MRSA strain 2468 [5]; with CTAB 1% w/v, 6 h): 93.17 ± 0.48 %
Antibacterial Activity Retention of FN33 AMP (%) Against MRSA Strain 2468 (MRSA strain 2468 [5]; with CTAB 1% w/v, 12 h): 92.51 ± 0.69 *^,† %
Antibacterial Activity Retention of FN33 AMP (%) Against MRSA Strain 2468 (MRSA strain 2468 [5]; with SDS 1% w/v, 1 h): 117.08 ± 0.78 %
Antibacterial Activity Retention of FN33 AMP (%) Against MRSA Strain 2468 (MRSA strain 2468 [5]; with SDS 1% w/v, 6 h): 117.39 ± 0.96 %
Antibacterial Activity Retention of FN33 AMP (%) Against MRSA Strain 2468 (MRSA strain 2468 [5]; with SDS 1% w/v, 12 h): 115.95 ± 0.57 %
Antibacterial Activity Retention of FN33 AMP (%) Against MRSA Strain 2468 (MRSA strain 2468 [5]; with Triton X-100 1% w/v, 1 h): 81.23 ± 1.04 %
Antibacterial Activity Retention of FN33 AMP (%) Against MRSA Strain 2468 (MRSA strain 2468 [5]; with Triton X-100 1% w/v, 6 h): 81.69 ± 0.38 %
Antibacterial Activity Retention of FN33 AMP (%) Against MRSA Strain 2468 (MRSA strain 2468 [5]; with Triton X-100 1% w/v, 12 h): 81.30 ± 0.72 %
Antibacterial Activity Retention of FN33 AMP (%) Against MRSA Strain 2468 (MRSA strain 2468 [6]; 30 °C, 1 h): 100.00 ± 0.66%
Antibacterial Activity Retention of FN33 AMP (%) Against MRSA Strain 2468 (MRSA strain 2468 [6]; 30 °C, 6 h): 100.00 ± 0.17%
Antibacterial Activity Retention of FN33 AMP (%) Against MRSA Strain 2468 (MRSA strain 2468 [6]; 30 °C, 12 h): 99.79 ± 0.47%
Antibacterial Activity Retention of FN33 AMP (%) Against MRSA Strain 2468 (MRSA strain 2468 [6]; 40 °C, 1 h): 100.08 ± 0.48%
Antibacterial Activity Retention of FN33 AMP (%) Against MRSA Strain 2468 (MRSA strain 2468 [6]; 40 °C, 6 h): 100.02 ± 0.35%
Antibacterial Activity Retention of FN33 AMP (%) Against MRSA Strain 2468 (MRSA strain 2468 [6]; 40 °C, 12 h): 100.23 ± 0.28%
Antibacterial Activity Retention of FN33 AMP (%) Against MRSA Strain 2468 (MRSA strain 2468 [6]; 60 °C, 1 h): 98.58 ± 1.74%
Antibacterial Activity Retention of FN33 AMP (%) Against MRSA Strain 2468 (MRSA strain 2468 [6]; 60 °C, 6 h): 93.53 ± 1.27 *^,† %
Antibacterial Activity Retention of FN33 AMP (%) Against MRSA Strain 2468 (MRSA strain 2468 [6]; 60 °C, 12 h): 86.98 ± 0.79 *^,† %
Antibacterial Activity Retention of FN33 AMP (%) Against MRSA Strain 2468 (MRSA strain 2468 [6]; 80 °C, 1 h): 95.17 ± 0.43 %
Antibacterial Activity Retention of FN33 AMP (%) Against MRSA Strain 2468 (MRSA strain 2468 [6]; 80 °C, 6 h): 90.91 ± 0.26 *^,† %
Antibacterial Activity Retention of FN33 AMP (%) Against MRSA Strain 2468 (MRSA strain 2468 [6]; 80 °C, 12 h): 82.46 ± 0.55 *^,† %
Antibacterial Activity Retention of FN33 AMP (%) Against MRSA Strain 2468 (MRSA strain 2468 [6]; 100 °C, 1 h): 90.83 ± 0.67 %
Antibacterial Activity Retention of FN33 AMP (%) Against MRSA Strain 2468 (MRSA strain 2468 [6]; 100 °C, 6 h): 83.38 ± 0.83 *^,† %
Antibacterial Activity Retention of FN33 AMP (%) Against MRSA Strain 2468 (MRSA strain 2468 [6]; 100 °C, 12 h): 79.97 ± 0.06 *^,† %
Antibacterial Activity Retention of FN33 AMP (%) Against MRSA Strain 2468 (MRSA strain 2468 [6]; autoclave 121 °C and 15 psi, 15 min): 72.82 ± 0.53 %
Antibacterial Activity Retention of FN33 AMP (%) Against MRSA Strain 2468 (MRSA strain 2468 [6]; autoclave 121 °C and 15 psi, 30 min): 65.87 ± 0.82 *^,† %
activity lost due to elevated temperatures (MRSA strain 2468 [6]; 60 °C, 80 °C and 100 °C, over 12 h): up to 20%
